Data from patent publication US20240050580A1, “COMPOSITIONS TARGETING TUMOR ASSOCIATED MACROPHAGES AND METHODS USING SAME” (Rutgers, The State University of New Jersey, priority 2020, published 2024).
Bridge positions count the residues as written; N and C are the ends. Ends that are not written are not given here.

Assays:
[1] = system: CD11b+F4/80+ TAM from EF43.fgf4 mammary tumors; experiment: Cytokine gene expression by quantitative real-time PCR in cultured TAM; format: cell-based, mouse
Protocol: Three sets of total RNA (RNeasy Mini Kit, Qiagen) were independently isolated from cultured macrophages, or fresh macrophages isolated directly from tumors. DNA synthesis was performed with the […] Reverse Transcription System (Promega) by using oligodT for reverse transcription. Gene expression was analyzed with the use of Tagman probes (Applied Biosystems) in a 7500 Fast Real-Time PCR System instrument (Applied Biosystems) and three sets of endogenous control genes: 18S and GAPDH and GUSB1. TAM were obtained directly from EF43.fgf4 tumors. Tissue digestion was performed in collagenase A in serum-free DMEM (1 mg/mL) for 20 minutes at 37° C., followed by filtering through 70 μm nylon cell strainers and centrifugation. Macrophages were enriched by magnetic bead separation of CD11b-positive cells (Miltenyi Biotec) and either used for RNA extraction or cultured in 6-well plates containing DMEM (Gibco) supplemented with 20% FBS (Sigma) and 50 ng/ml of M-CSF (R&D Systems). A homogeneous population of adherent macrophages (namely, >99% CD11b+F480+) was obtained after 7 days in culture.

DBP = target: T1, DBP (Homo sapiens, UniProt P02774); experiment: Competitive binding of […]-phage and vitamin D forms to DBP; conditions: wells pre-incubated with 3 nM or 30 nM competitor; P<0.05
T1 construct: GST; purchased Abcam
T1 sequence (P02774 17-474): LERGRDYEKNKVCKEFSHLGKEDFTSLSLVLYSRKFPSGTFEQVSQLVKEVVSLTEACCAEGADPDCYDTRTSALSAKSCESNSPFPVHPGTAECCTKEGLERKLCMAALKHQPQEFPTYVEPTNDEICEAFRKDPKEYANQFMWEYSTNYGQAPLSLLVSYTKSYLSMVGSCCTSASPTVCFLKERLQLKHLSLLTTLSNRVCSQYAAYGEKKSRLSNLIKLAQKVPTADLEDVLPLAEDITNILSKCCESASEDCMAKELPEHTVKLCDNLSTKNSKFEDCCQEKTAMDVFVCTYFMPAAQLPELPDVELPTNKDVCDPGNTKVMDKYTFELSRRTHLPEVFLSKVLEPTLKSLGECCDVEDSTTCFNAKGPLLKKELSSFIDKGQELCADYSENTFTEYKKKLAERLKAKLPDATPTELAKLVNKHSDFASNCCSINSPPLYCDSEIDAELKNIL
Protocol: (§1) The Biopanning and Rapid Analysis of Selective Interactive Ligands (BRASIL) methodology was used to test binding of phage to cultured cells. For phage binding to the candidate receptors PDIA3 and DBP, individual microtiter wells of 96-well plates were coated overnight (ON) with 1 μg/ml of recombinant proteins, followed by blocking with BSA and incubation with 10^9 TU of insertless phage or […]-phage for 1 hour at room temperature (RT). GST and BSA were used as control proteins. Bound phage were recovered by log-phase infection of host bacteria (200 μl E. coli K91Kan).

EF43.fgf4 cells = experiment: Phage/peptide binding to cultured EF43.fgf4 cells (BRASIL cell binding assay); format: cell-based, mouse; conditions: standard cell binding assay, phage-displayed peptide
Protocol: as §1

[2] = system: EF43.fgf4-derived mammary fat pad tumors; experiment: In vivo phage display library selection in EF43.fgf4 tumor-bearing mice; set-up: species or system mouse; conditions: peptide sequences from third round of in vivo selection
Protocol: Combinatorial phage display selections in vivo in tumor-bearing mice were performed as described in the literature. In brief, animals received 10^9 TU iv of an unselected phage display random peptide library (displaying the insert CX7C). Tumors and control organs were collected after 24 hours of systemic circulation. For homing of individual phage clones in vivo, tumor-bearing mice were deeply anesthetized with 1-2% isoflurane and received 10^9 TU of targeted phage or insertless control phage, both administered iv side-by-side. Phage particles were recovered from tissue samples by bacterial infection and processed as described in the literature.
A phage display-based approach was used to identify homing peptides that target TAM in TNBC. […] A random phage peptide library was first administered intravenously (iv) in immunocompetent female BALB/c mice with established EF43.fgf4-derived mammary fat pad tumors. Phage particles were recovered from tumors after 24 hours, re-amplified, and subjected to two additional rounds of in vivo selection. […] The four selected peptides were next individually evaluated based on absence of binding to EF43.fgf4 cells in vitro (FIG. 2B). […] In a non-limiting aspect, the peptides […], (SEQ ID NO:3) […] (SEQ ID NO:4), and […] (SEQ ID NO:2) were not studied further.

EF43.fgf4 tumors = experiment: Systemic treatment of EF43.fgf4 tumor-bearing mice with soluble peptide; format: in vivo, mouse
[3] = target: T2, PDIA3 on the surface of tumor associated macrophages (TAM) from EF43.fgf4 mammary tumors (mouse, UniProt P27773 25-505); experiment: cell-based or functional assay
T2 sequence (looked up): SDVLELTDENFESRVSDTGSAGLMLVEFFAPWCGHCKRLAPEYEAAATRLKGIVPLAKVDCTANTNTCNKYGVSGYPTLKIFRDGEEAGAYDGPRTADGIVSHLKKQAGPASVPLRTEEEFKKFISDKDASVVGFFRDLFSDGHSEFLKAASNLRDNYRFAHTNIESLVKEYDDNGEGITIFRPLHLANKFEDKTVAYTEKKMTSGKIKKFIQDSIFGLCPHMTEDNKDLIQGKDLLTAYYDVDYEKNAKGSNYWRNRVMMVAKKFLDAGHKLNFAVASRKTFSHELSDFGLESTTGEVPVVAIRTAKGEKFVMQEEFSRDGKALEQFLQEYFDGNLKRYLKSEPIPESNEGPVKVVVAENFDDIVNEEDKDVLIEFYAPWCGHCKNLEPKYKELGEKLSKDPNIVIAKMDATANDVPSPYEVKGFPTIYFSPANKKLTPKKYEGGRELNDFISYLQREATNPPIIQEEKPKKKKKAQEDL

[4] = target: T3, recombinant human vitamin D-binding protein (DBP) (human, UniProt P02774 17-474, limits assumed); experiment: phage binding assay on coated recombinant protein, bound phage counted as TU
T3 construct: Bought from Abcam and coated at 1 ug/ml on microtiter wells; also called recombinant human DBP; DBP-GST
T3 sequence (looked up): T1 sequence (P02774 17-474)
Protocol: The Biopanning and Rapid Analysis of Selective Interactive Ligands (BRASIL) methodology was used to test binding of phage to cultured cells. […] GST and BSA were used as control proteins. Bound phage were recovered by log-phase infection of host bacteria (200 μl E. coli K91Kan).

C=C1/C(=C\C=C2/CCC[C@]3(C)[C@@H]([C@H](C)CCCC(C)(C)O)CC[C@@H]23)C[C@@H](O)C[C@@H]1O [1,25-(OH)2D3, reference compound]
effect of co-treatment on the CSSTRESAC-induced cytokine response ([1]; TAM co-treated with CSSTRESAC peptide and 1,25-(OH)2D3): abrogated

C=C1CC[C@H](O)C/C1=C/C=C1\CCC[C@]2(C)[C@@H]([C@H](C)CCCC(C)C)CC[C@@H]12 [vitamin D3, cholecalciferol]
effect on binding of CSSTRESAC-phage to immobilized DBP (DBP): not

CQRALMIAC (TAM Targeting Peptide) [TAM targeting peptide selected by in vivo phage display]
binding to EF43.fgf4 cells in vitro (EF43.fgf4 cells): bound to EF43.fgf4 cells

CRGFVVGRC (TAM Targeting Peptide) [TAM targeting peptide selected by in vivo phage display]
binding to EF43.fgf4 cells in vitro (EF43.fgf4 cells): bound to EF43.fgf4 cells

CRYSAARSC (TAM Targeting Peptide) [TAM targeting peptide selected by in vivo phage display]
binding to EF43.fgf4 cells in vitro (EF43.fgf4 cells): bound to EF43.fgf4 cells

CSSTRESAC (disulfide 1-9) [TAM targeting peptide from CX7C phage library; modeled with disulfide bridge between Cys1 and Cys9]
enrichment relative to each of the other three selected peptides [2]: 16 fold | binding to EF43.fgf4 cells in vitro (EF43.fgf4 cells): did not | gene expression of IL-4 and IL-13 [1]: undetectable | gene expression of IL-18, IL-12, and INFβ ([1]; relative to control cells): modest increases or were detected only at background levels | gene expression of anti-inflammatory cytokines TGF-β1, TGF-β2, IL-10, and arginase-1 ([1]; relative to control cells): much lower increases | tumor growth (EF43.fgf4 tumors; iv, vs unrelated control peptide or vehicle, from one week post initiation, P<0.001): significant delay in tumor growth | macrophage population in tumor sections (immunohistochemistry, CD163) (EF43.fgf4 tumors; vs control peptide): reduction of the macrophage population | number of CD11b+IL10highIL12low PDIA3-expressing TAM in tumors (FACS) (EF43.fgf4 tumors; vs negative control groups): reduction in the number

B1: synthetic CSSTRESAC peptide (SEQ ID NO:1) (peptide)
peptide: CSSTRESAC
modifications: not fully specified; cysteine pairing not given here
gene expression of iNOS2 in cultured CD11b+F4/80+ TAM (real-time quantitative PCR) [3]: ~20 fold | gene expression of the cytokine IL-23 in cultured CD11b+F4/80+ TAM (real-time quantitative PCR) [3]: ~10 fold | gene expression of the pro-inflammatory cytokines IL-1β, TNF-α, and IL-6 in cultured CD11b+F4/80+ TAM (real-time quantitative PCR) [3]: ~40 fold

B2: CSSTRESAC-phage (peptide)
peptide: CSSTRESAC
modifications: cysteine pairing not given here; also: displayed on bacteriophage particle
notes: The control was insertless phage; not shown: The phage coat protein and the rest of the phage particle that carry the CX7C insert
binding result [4]: binds
